Source: ChEMBL document CHEMBL1201862, “PubChem BioAssay data set” (2004)
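48-hour exposure; five concentrations; linearly interpolated endpoints. GI50 marks 50% less growth.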 Activity calls are given as the source filed them. Cut-off read from the data, not from the text of the source: active = GI50 up to about 1.1 µM and inactive = higher.

Experiments:
Experiment in all cases: NCI tumour cell line growth inhibition, 48 h
[1] = test system: SF-268
[2] = test system: SK-MEL-5
[3] = test system: HCT-116
[4] = test system: A549
[5] = test system: SR
[6] = test system: SK-MEL-2
[7] = test system: COLO 205
[8] = test system: M14
[9] = test system: SK-MEL-28
[10] = test system: UACC-62
[11] = test system: LXFL 529
[12] = test system: HL-60
[13] = test system: HCT-15
[14] = test system: SK-OV-3
[15] = test system: ACHN
[16] = test system: NCI-H23
[17] = test system: OVCAR-4
[18] = test system: A498

O=c1cc(-c2ccccc2)oc2cc(OCCSCCCCCCCCCCSCCOc3ccc4c(=O)cc(-c5ccccc5)oc4c3)ccc12
GI50 [1]: 74.3 µM (inactive) | GI50 [2]: > 100 µM (inactive) | GI50 [3]: > 100 µM (inactive) | GI50 [4]: > 100 µM (inactive) | GI50 [5]: > 100 µM (inactive) | GI50 [6]: > 100 µM (inactive) | GI50 [7]: > 100 µM (inactive) | GI50 [8]: > 100 µM (inactive) | GI50 [9]: > 100 µM (inactive) | GI50 [10]: 65.9 µM (inactive) | GI50 [11]: > 100 µM (inactive) | GI50 [12]: > 100 µM (inactive) | GI50 [13]: > 100 µM | GI50 [14]: 74.1 µM (inactive) | GI50 [15]: > 100 µM (inactive) | GI50 [16]: > 100 µM (inactive)

O=C(O)c1[nH]c(C(=O)O)c(CC(F)(F)C(F)(F)C(F)(F)F)c1CC(F)(F)C(F)(F)C(F)(F)F
GI50 [1]: > 100 µM (inactive) | GI50 [2]: > 100 µM (inactive) | GI50 [17]: > 100 µM (inactive) | GI50 [3]: > 100 µM (inactive) | GI50 [4]: > 100 µM (inactive) | GI50 [7]: > 100 µM (inactive) | GI50 [8]: > 100 µM (inactive) | GI50 [18]: > 100 µM (inactive) | GI50 [9]: > 100 µM (inactive) | GI50 [10]: > 100 µM (inactive) | GI50 [11]: > 100 µM (inactive) | GI50 [12]: > 100 µM (inactive) | GI50 [13]: > 100 µM | GI50 [14]: > 100 µM (inactive) | GI50 [15]: > 100 µM (inactive) | GI50 [16]: > 100 µM (inactive)

COC(=O)/C(=C/c1ccc(OC)cc1)NC(=O)c1ccccc1
GI50 [1]: > 100 µM (inactive) | GI50 [2]: > 100 µM (inactive) | GI50 [17]: > 100 µM (inactive) | GI50 [3]: > 100 µM (inactive) | GI50 [4]: > 100 µM (inactive) | GI50 [5]: > 100 µM (inactive) | GI50 [6]: > 100 µM (inactive) | GI50 [8]: > 100 µM (inactive) | GI50 [18]: > 100 µM (inactive) | GI50 [9]: > 100 µM (inactive) | GI50 [10]: > 100 µM (inactive) | GI50 [11]: > 100 µM (inactive) | GI50 [13]: > 100 µM | GI50 [14]: > 100 µM (inactive) | GI50 [15]: > 100 µM (inactive) | GI50 [16]: > 100 µM (inactive)

CNC(=O)NCCCC(NC(C)=O)C(=O)NCc1ccccc1 (stereo unspecified)
GI50 [1]: > 100 µM (inactive) | GI50 [2]: > 100 µM (inactive) | GI50 [17]: > 100 µM (inactive) | GI50 [3]: > 100 µM (inactive) | GI50 [4]: > 100 µM (inactive) | GI50 [6]: > 100 µM (inactive) | GI50 [7]: > 100 µM (inactive) | GI50 [8]: > 100 µM (inactive) | GI50 [18]: > 100 µM (inactive) | GI50 [9]: > 100 µM (inactive) | GI50 [10]: > 100 µM (inactive) | GI50 [11]: > 100 µM (inactive) | GI50 [13]: > 100 µM | GI50 [14]: > 100 µM (inactive) | GI50 [15]: > 100 µM (inactive) | GI50 [16]: > 100 µM (inactive)

O=C1/C(=C\c2ccccc2)C2/C(=C\c3ccccc3)C(=O)/C(=C\c3ccccc3)C2/C1=C\c1ccccc1 (stereo unspecified)
GI50 [1]: 2.58 µM (inactive) | GI50 [2]: 1.9 µM (inactive) | GI50 [17]: 1.21 µM (inactive) | GI50 [4]: 2.48 µM (inactive) | GI50 [6]: 1.81 µM (inactive) | GI50 [7]: 1.52 µM (inactive) | GI50 [8]: 1.43 µM (inactive) | GI50 [9]: 2.18 µM (inactive) | GI50 [10]: 1.9 µM (inactive) | GI50 [11]: 0.681 µM (active) | GI50 [12]: 0.608 µM (active) | GI50 [13]: 1.32 µM | GI50 [14]: 19.7 µM (inactive) | GI50 [15]: 2.29 µM (inactive) | GI50 [16]: 1.62 µM (inactive)

COc1ccc(/C=c2/sc3n(c2=O)NC(c2ccc(Cl)cc2)NN=3)cc1 (stereo unspecified)
GI50 [1]: > 100 µM (inactive) | GI50 [2]: > 100 µM (inactive) | GI50 [17]: > 100 µM (inactive) | GI50 [3]: > 100 µM (inactive) | GI50 [4]: > 100 µM (inactive) | GI50 [5]: > 100 µM (inactive) | GI50 [6]: > 100 µM (inactive) | GI50 [7]: > 100 µM (inactive) | GI50 [8]: > 100 µM (inactive) | GI50 [9]: > 100 µM (inactive) | GI50 [10]: > 100 µM (inactive) | GI50 [11]: > 100 µM (inactive) | GI50 [14]: > 100 µM (inactive) | GI50 [16]: > 100 µM (inactive)

CCCCCC(=O)Cc1cc(OC)cc2c1C(=O)Oc1cc(O)c(C(=O)O)c(CC(=O)CCCCC)c1O2
GI50 [1]: 35.2 µM (inactive) | GI50 [2]: > 100 µM (inactive) | GI50 [3]: 26 µM (inactive) | GI50 [4]: 43.2 µM (inactive) | GI50 [5]: 52.6 µM (inactive) | GI50 [7]: 45 µM (inactive) | GI50 [8]: 63.2 µM (inactive) | GI50 [18]: 39 µM (inactive) | GI50 [10]: 20.6 µM (inactive) | GI50 [11]: 55.5 µM (inactive) | GI50 [12]: 38.9 µM (inactive) | GI50 [14]: 46.9 µM (inactive) | GI50 [15]: 35.7 µM (inactive) | GI50 [16]: 19.2 µM (inactive)

C=CCN1/C(=C2\SC(=S)N(c3ccc(C)cc3)C2=O)Sc2c1nc[nH]c2=O
GI50 [1]: > 100 µM (inactive) | GI50 [2]: 66.1 µM (inactive) | GI50 [17]: 96.2 µM (inactive) | GI50 [3]: > 100 µM (inactive) | GI50 [4]: > 100 µM (inactive) | GI50 [6]: 43.3 µM (inactive) | GI50 [7]: > 100 µM (inactive) | GI50 [8]: > 100 µM (inactive) | GI50 [18]: > 100 µM (inactive) | GI50 [9]: > 100 µM (inactive) | GI50 [10]: > 100 µM (inactive) | GI50 [11]: > 100 µM (inactive) | GI50 [12]: > 100 µM (inactive) | GI50 [13]: 47 µM | GI50 [14]: > 100 µM (inactive) | GI50 [15]: > 100 µM (inactive) | GI50 [16]: > 100 µM (inactive)

O=C(c1ccccc1)C1OC12C(=O)Nc1ccccc12 (stereo unspecified)
GI50 [1]: 59.8 µM (inactive) | GI50 [2]: 11.3 µM (inactive) | GI50 [17]: 47.8 µM (inactive) | GI50 [3]: 36.2 µM (inactive) | GI50 [4]: 46.7 µM (inactive) | GI50 [6]: 44.2 µM (inactive) | GI50 [7]: 18 µM (inactive) | GI50 [8]: 21.8 µM (inactive) | GI50 [18]: 73.1 µM (inactive) | GI50 [9]: 29.6 µM (inactive) | GI50 [10]: 40.7 µM (inactive) | GI50 [11]: 16.5 µM (inactive) | GI50 [12]: 3.27 µM (inactive) | GI50 [13]: > 10 µM | GI50 [14]: 35.6 µM (inactive) | GI50 [15]: 56.9 µM (inactive) | GI50 [16]: 21.5 µM (inactive)
